Measured values published in PubChem BioAssay AID248 (DTP/NCI, 2004).
Toxic doses and inconclusive results are not listed.

Test system: L1210 leukemia ip in BDF1 mice, survival T/C
Assay: NCI In Vivo Anticancer Drug Screen. Data for tumor model L1210 Leukemia (intraperitoneal) in B6D2F1 (BDF1) mice
Conditions: endpoint: mean survival time, higher = longer survival
Method in brief: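 Ratio derived from survival: compound-dosed mice over vehicle-dosed mice, all bearing a transplantable tumor.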

[1] = dose: 100.0 mg/kg/injection, schedule: Q01DX001 (ip), vehicle: saline
[2] = dose: 200.0 mg/kg/injection, schedule: Q01DX001 (ip), vehicle: saline
[3] = dose: 400.0 mg/kg/injection, schedule: Q01DX001 (ip), vehicle: saline
[4] = dose: 100.0 mg/kg/injection, schedule: Q01DX001 (ip), vehicle: carboxymethylcellulose (CMC)
[5] = dose: 200.0 mg/kg/injection, schedule: Q01DX001 (ip), vehicle: carboxymethylcellulose (CMC)
[6] = dose: 400.0 mg/kg/injection, schedule: Q01DX001 (ip), vehicle: carboxymethylcellulose (CMC)

In the case of O=S(=O)(F)c1cc(Cl)c(O)c(S(=O)(=O)F)c1, the T/C (dose: 100.0 mg/kg/injection, schedule: Q01DX009 (ip), vehicle: Klucel (hydroxypropylcellulose) (HPC)) is reported as 101 % of control.
NC(=O)Oc1c(Cl)cc(Cl)c(Cl)c1[N+](=O)[O-] was tested, and the T/C (dose: 25.0 mg/kg/injection, schedule: Q04DX002 (ip), vehicle: Klucel (hydroxypropylcellulose) (HPC)) was 97 % of control, the T/C (dose: 50.0 mg/kg/injection, schedule: Q04DX002 (ip), vehicle: Klucel (hydroxypropylcellulose) (HPC)) was 104 % of control and the T/C (dose: 100.0 mg/kg/injection, schedule: Q04DX002 (ip), vehicle: Klucel (hydroxypropylcellulose) (HPC)) was 97 % of control.
With CC1(C)OCC(C2OC3OC(C)(C)OC3C2O)O1 (configuration not stated) the T/C [1] was 97 % of control, the T/C [2] was 100 % of control and the T/C [3] was 100 % of control.
In the case of CCOC(=O)c1ccc(Nc2nnc(-c3c(OC)cc(OC)cc3OC)s2)cc1, the T/C (dose: 100.0 mg/kg/injection, schedule: Q04DX002 (ip), vehicle: saline with Tween-80) is reported as 93 % of control, the T/C (dose: 200.0 mg/kg/injection, schedule: Q04DX002 (ip), vehicle: saline with Tween-80) is reported as 104 % of control and the T/C (dose: 400.0 mg/kg/injection, schedule: Q04DX002 (ip), vehicle: saline with Tween-80) is reported as 101 % of control.
Cc1ccc(NN)c(I)c1 was tested, and the T/C (dose: 100.0 mg/kg/injection, schedule: Q01DX001 (ip), vehicle: saline with Tween-80) was 97 % of control, the T/C (dose: 200.0 mg/kg/injection, schedule: Q01DX001 (ip), vehicle: saline with Tween-80) was 93 % of control and the T/C (dose: 400.0 mg/kg/injection, schedule: Q01DX001 (ip), vehicle: saline with Tween-80) was 95 % of control.
CCN(CC)Cc1cc(Cl)cc(Cc2cc(Cl)cc(CN(CC)CC)c2O)c1O was tested, and the T/C (dose: 200.0 mg/kg/injection, schedule: Q04DX003 (ip), vehicle: acetone) was 109 % of control and the T/C (dose: 400.0 mg/kg/injection, schedule: Q04DX003 (ip), vehicle: acetone) was 98 % of control.
For Brc1ccc(N=Cc2ccc3c(c2)OCO3)cc1, the T/C (dose: 100.0 mg/kg/injection, schedule: Q04DX003 (ip), vehicle: gum acacia) was 96 % of control, the T/C (dose: 200.0 mg/kg/injection, schedule: Q04DX003 (ip), vehicle: gum acacia) was 95 % of control and the T/C (dose: 400.0 mg/kg/injection, schedule: Q04DX003 (ip), vehicle: gum acacia) was 90 % of control.
COC1NC(=O)NC(=O)C1=[N+]=[N-] (configuration not stated) was tested, and the T/C (dose: 5.0 mg/kg/injection, schedule: Q04DX003 (ip), vehicle: saline with Tween-80) was 115 % of control, the T/C (dose: 6.6 mg/kg/injection, schedule: Q01DX009 (ip), vehicle: saline with Tween-80) was 150 % of control and the T/C (dose: 10.0 mg/kg/injection, schedule: Q01DX009 (ip), vehicle: saline with Tween-80) was 170 % of control. For the same molecule, the T/C (dose: 10.0 mg/kg/injection, schedule: Q04DX003 (ip), vehicle: saline with Tween-80) was 118 % of control and the T/C (dose: 15.0 mg/kg/injection, schedule: Q01DX009 (ip), vehicle: saline with Tween-80) was 163 % of control.
With [O-]/[N+](=C\c1cccc(O)c1)c1ccccc1 the T/C (dose: 50.0 mg/kg/injection, schedule: Q01DX001 (ip), vehicle: saline) was 102 % of control, the T/C [1] was 106 % of control and the T/C [2] was 102 % of control. For the same molecule, the T/C [3] was 100 % of control.
N/N=C(\c1ccccc1)c1ccc(Cl)cc1 was tested, and the T/C [4] was 96 % of control, the T/C [5] was 87 % of control and the T/C [6] was 95 % of control.
In the case of Cc1ccc(N2C(=O)CCC2=O)c(C)c1, the T/C (dose: 50.0 mg/kg/injection, schedule: Q01DX001 (ip), vehicle: carboxymethylcellulose (CMC)) is reported as 104 % of control, the T/C [4] is reported as 98 % of control and the T/C [5] is reported as 102 % of control. The T/C [6] was 98 % of control.
For Nc1c(Cl)nc(Cl)nc1C(F)(F)F, the T/C (dose: 29.0 mg/kg/injection, schedule: Q01DX Z (ip), vehicle: methylcellulose (MC)) was 92 % of control and the T/C (dose: 44.0 mg/kg/injection, schedule: Q01DX Z (ip), vehicle: methylcellulose (MC)) was 95 % of control.
For Cc1cc(O)c(O)c(C(C)(C)C)c1, the T/C (dose: 100.0 mg/kg/injection, schedule: Q04DX002 (ip), vehicle: other) was 102 % of control and the T/C (dose: 200.0 mg/kg/injection, schedule: Q04DX002 (ip), vehicle: other) was 87 % of control.
CCc1occ(C(=O)OC)c1C1SCCS1 was tested, and the T/C [1] was 92 % of control, the T/C [2] was 97 % of control and the T/C [3] was 91 % of control.
In the case of C[N+](C)(C)c1ncncn1, the T/C (dose: 12.0 mg/kg/injection, schedule: Q04DX003 (ip), vehicle: saline) is reported as 98 % of control, the T/C (dose: 25.0 mg/kg/injection, schedule: Q04DX003 (ip), vehicle: saline) is reported as 98 % of control and the T/C (dose: 50.0 mg/kg/injection, schedule: Q04DX003 (ip), vehicle: saline) is reported as 104 % of control.
For CCCCC(=O)N/N=C/c1cc(I)cc(I)c1O, the T/C [1] was 87 % of control, the T/C [2] was 89 % of control and the T/C [3] was 87 % of control.
